Values of other authors in US10829440B2, “Antibacterial compounds and methods of making and using same” (Brown University, priority 2015, dated 2020).

System: LT
Conditions: cited from earlier work

CC1=N[C@@H]2[C@@H](O)[C@H](O)[C@@H](CO)O[C@@H]2S1 [NAG-thiazoline]
binding of LT: weak binder
